By melting point is commonly meant the temperature, or range, at which the solid turns liquid.

On to `CCOCc1nc2c(N)nc3ccc(OCc4ccccc4)cc3c2n1CC(C)(C)NC(=O)C1CCCCC1`, for which the melting point was found to be 90 °C.

`CC(C(=O)O)c1ccc(-c2ccc(F)cc2)c(Br)c1` (configuration not stated) had a melting point of 129 to 131 °C.

Turning to `COc1ccc2c(c1)C(=O)C(=Cc1cccc([N+](=O)[O-])c1)CO2`, the melting point was 157 to 159 °C.

`CCC(OCC(F)(F)F)c1ccc(Cl)c2nc3n(c12)CCCN3c1ccc(N(C)C)nc1C` (configuration not stated): the melting point is 144 to 146 °C.

`CCOC(=O)CCc1cc(O)ccc1-c1ccc(-c2cccc(C)c2)c(CO)c1` showed a melting point of 57 to 59 °C.

`FC(F)(F)c1cccc2snnc12` had a melting point of 41 to 44 °C.

For `COc1cc2c(c3c1OC(C)(C)C3)C(c1ccn(Cc3ccc(C(=O)Nc4ccncc4)cc3)c(=O)c1)=NC(C)(C)C2`, the melting point was in the range of 144 to 146 °C.

`CC(=O)c1cnc2c(c1)oc(=O)n2CCc1ccccn1` came in with a melting point of 138 to 140 °C.

`CC(C(=O)O)c1ccc(OCCNC(=O)C2Cc3ccccc3N2S(=O)(=O)c2ccc(-c3cc(C(F)(F)F)ccc3Cl)cc2)cc1` (configuration not stated) showed a melting point of 91 to 100 °C.

`NCCc1c[nH]c2ccc3c(=O)n(CC4CCCCO4)ccc3c12` (configuration not stated) yielded a melting point of 260 to 262 °C.

The molecule `O=C(NC(=O)c1c(F)cccc1F)Nc1ccc(C(F)(F)F)cn1` gave a melting point of 215 to 220 °C.

For `CCCCn1cc(C(=O)Nc2nccs2)c2ccc(Cl)cc21`, the melting point lay in the range of 168 to 169 °C.

In turn, `NC(=O)c1sc2nccc(N3CCN(C/C=C/c4ccccc4)CC3)c2c1N` registered a melting point of 225 to 227 °C.

`COc1ccc(-n2nc(Sc3ccc([N+](=O)[O-])cc3)c(C)c(C#N)c2=O)cc1` showed a melting point of 258 to 260 °C.

For the molecule `Cc1ccccc1Nc1nc(O)c2sccc2n1`, the melting point was 243 to 245 °C.

`C[C@@H]1Cc2ccsc2[C@H](C)N1CCNC(=O)c1c(F)c(F)c(F)c(F)c1F` (relative stereo) displayed a melting point of 116 to 119 °C.

With `Cc1cc(C(=O)N(C)C)ccc1-c1ccc(C(=O)Nc2ccc(Br)c(N3CCN(C)CC3)c2)cc1`, the melting point lay in the range of 227 to 228 °C.

`Cc1cc2ccc(/C=C/C(=O)OCc3ccccc3)cc2[nH]1` had a melting point of 164 to 165 °C.

For the molecule `CSc1ccc(NC(=N)c2ccc(F)cc2)cc1`, the melting point lay in the range of 121 to 124 °C.

The molecule `NC(=O)c1ccnc(OCc2nc3cc(Cl)ccc3s2)c1` registered a melting point of 220 to 222 °C.

`ICc1nc(-c2ccc3c(c2)OCO3)c2cc3c(cc2n1)OCO3` registered a melting point of 155 to 160 °C.

The molecule `CCOCc1nc2c(N)nc3c(c2n1NCCCNC(C)=O)CCCC3` had a melting point of 198 to 200 °C.

For the molecule `CC(C)(C)[C@@H]1CCc2nc3sc(C(=O)N[C@H](CN)c4cccc(NC(=O)c5ccno5)c4)cc3cc2C1`, the melting point lay within 98 to 102 °C.

Molecule `O=C(O)Cc1c(C(=O)c2cccc(-c3ccco3)c2)[nH]c2cc(Cl)ccc12` registered a melting point of 246 to 249 °C.

Molecule `Cc1c(F)c(F)c(C(=O)NC2CCCCCC2)c(F)c1F` registered a melting point of 164 to 165 °C.

In turn, `CC(C)(C)OCC1C(=O)C(C)(C)C(=O)N1c1ccc(C#N)c(Cl)c1` (configuration not stated) came in with a melting point of 124 to 125 °C.

In the case of `N#Cc1ccc(COc2ccc(CC(NC(=O)c3cc4ccc(-c5ccc(Cl)cc5)cc4o3)C(=O)O)cc2)cc1` (configuration not stated), the melting point was found to be 204 °C.

`CC1(c2ccc(F)cc2)NOCC1CN(O)C(N)=O` (configuration not stated): the melting point lay in the range of 135 to 137 °C.

Consider `COc1ncncc1NS(=O)(=O)c1cccc(Cl)c1Cl`, for which the melting point is 204 to 211 °C.

Regarding `CC(=O)c1cccc(Cl)c1C(=O)O`, the melting point lay in the range of 128 to 129 °C.

With `CCOC(OCC)N1C(=O)C2(CCCCC2)c2cc(-c3cc(F)cc(C#N)c3)ccc21`, the melting point was determined as 146 °C.

`CCC(Cc1ccc(OCCN2CCCCC2)cc1)(C(=O)NO)S(=O)(=O)c1ccc(OC)cc1` (configuration not stated) displayed a melting point of 75 °C.

As for `COC(=O)Cn1c(=S)sc2ccccc21`, the melting point lay in the range of 127 to 128 °C.

Turning to `COC1(c2ccc3ccccc3c2)OOC12C1CC3CC(C1)CC2C3` (configuration not stated), the melting point amounted to 116 °C.

On to `CNC(=O)c1c(I)c(NC(=O)COC)c(I)c(C(=O)NC(CO)C(=O)O)c1I` (racemic), for which the melting point lay within 247 to 248 °C.

For the molecule `[N-]=[N+]=CC(=O)c1ccc(Br)c(S(N)(=O)=O)c1`, the melting point was 152 °C.

Regarding `Cn1nc(Oc2ccc([N+](=O)[O-])c(N)c2)cc1C(F)(F)F`, the melting point lay within 91 to 92 °C.

The molecule `Nc1cccc(C=CC(=O)N2CCc3c([nH]c4ccccc34)C2c2ccc3c(c2)OCO3)c1` (configuration not stated) came in with a melting point of 139 to 141 °C.

For the molecule `CCO[C@@H](Cc1ccc(OCCc2nc(-c3ccc(C(F)(F)F)cc3)oc2C)c2ccsc12)C(=O)O`, the melting point was 126 to 128 °C.

`CN1CCC(Sc2[nH]nc(-c3ccc(Cl)cc3)c2-c2ccncc2)CC1` registered a melting point of 228 °C.

Regarding `COc1ccc(-c2ccn3c(=O)c(C(=O)O)ccc3c2)cc1`, the melting point is above 250 °C.

For the molecule `COc1ccc2c(C(=O)O)cccc2c1SC(F)(F)F`, the melting point was 204 to 205 °C.

`CC(C)c1nc2c(nc1C(C)C)C(=O)CCC2` had a melting point of 92 to 94 °C.

For the molecule `CCOC(=O)c1cn2c3c(cc(CN4CCOCC4)cc3c1=O)OC(F)(F)C2`, the melting point was in the range of 176 to 177 °C.

Molecule `CCOC(=O)C1=CC2(CCC1S(=O)(=O)Nc1ccc(F)cc1Cl)CCC1(COCOO1)CO2` (configuration not stated) gave a melting point of 156 to 157 °C.

As to `CCS(=O)(=O)Nc1ccc2c(c1)S(=O)(=O)C=C(c1c(O)c3cc(F)ccc3n(CCC3CC3)c1=O)N2`, the melting point was in the range of 140 to 142 °C.

On to `CCOC(=O)C1c2c([nH]c3ccccc23)C2=C(CCC2)C1C#N` (configuration not stated), for which the melting point is 192 to 195 °C.

Molecule `CCOC(=O)Nc1cc(-n2cc(C(=O)OCC)c(=O)c3c(OCc4ccccc4)c(F)c(F)cc32)c(F)cc1F` came in with a melting point of 130 to 134 °C.

Molecule `CNc1cc(OC)c(-c2nc(C)c(-c3cccnc3)[nH]2)cc1Cl` gave a melting point of 205 to 206 °C.

`CC(C)(C)[Si](C)(C)OCCn1ccc([N+](=O)[O-])n1` registered a melting point of 76 to 77 °C.

Take `N=C(Nc1ccc2[nH]cc(-c3ccncc3)c2c1)c1cccs1`: the melting point lay within 183 to 185 °C.

Consider `COc1ccc(N2C(=O)C(=O)c3cc(OC)ccc32)cc1`, for which the melting point was in the range of 203 to 205 °C.

Molecule `O=c1sc2cc(Cl)ccc2n1CCCCl` came in with a melting point of 131 to 132 °C.

`CS(=O)(=O)c1cc(C(=O)NC(=N)N)c(NCc2ccco2)cc1Cl`: the melting point was in the range of 96 to 102 °C.

`COc1ccccc1-n1c(=O)[nH]c2c(C(N)=O)nc(N[C@H]3CC[C@H](O)CC3)nc21`: the melting point lay within 165 to 167 °C.

The molecule `O=C(C(=O)N(CC(F)(F)F)S(=O)(=O)C(F)(F)F)N(CC(F)(F)F)S(=O)(=O)C(F)(F)F` returned a melting point of 43 to 45 °C.

`NC(=O)[C@H](O)[C@@H](O)CO` showed a melting point of 105 to 107 °C.

`O=C(CNC(=O)C(Cc1ccccc1)CP(=O)(O)O)OCc1ccccc1` (configuration not stated) returned a melting point of 250 °C.

`Cn1nc(C(F)(F)F)c(C(=O)CC#N)c1Cl` yielded a melting point of 103 to 105 °C.

In the case of `COCCOCOc1c(C(C)(C)C)cc(-c2nc(N)n[nH]2)cc1C(C)(C)C`, the melting point lay in the range of 233 to 235 °C.

The molecule `Cc1c(C)c(N2CCN(c3ccc(Cl)cc3)CC2)c(C)c2c1OC(C)(C)C2` registered a melting point of 226 to 229 °C.

In the case of `Cn1c(=S)ccc2ccccc21`, the melting point stood at 114 °C.

With `COc1cc(Nc2nccc(-c3cccc(NCCCO)c3)n2)cc(OC)c1OC`, the melting point is 92 to 95 °C.

In turn, `NC(=O)N1CCC(Br)C1=O` (configuration not stated) yielded a melting point of 128 to 129 °C.

`C=CCc1cc2c(c(CC=C)c1O)S(=O)CN2CC=C` (configuration not stated) returned a melting point of 110 to 111 °C.

With `COC(=O)COc1cccc2c1CCC(Cc1coc(C(c3ccccc3)c3ccccc3)n1)C2` (configuration not stated), the melting point was in the range of 91 to 93 °C.

Molecule `CC1(C)C2=C(Cl)C(=O)C(Cl)=CC2=Nc2ccc(O)cc21` showed a melting point below 250 °C.

Molecule `CC(C)OC(=O)N1CCC(c2nc3cc(-c4ccc(-n5cnnn5)cc4F)ccc3o2)CC1` came in with a melting point of 168 to 171 °C.

For `Cc1c(C(=O)Nc2ccc(N3CCC(N4CCOCC4)CC3)c(C#N)c2)cnn1-c1ccc(F)c(Cl)c1`, the melting point was 266 °C.

`CC(C)Oc1ccc(-n2c(C(=O)O)c(C(=O)O)c3cc(Oc4ncccc4C(N)=O)ccc32)cc1`: the melting point lay in the range of 236 to 238 °C.

In turn, `COC(=O)[C@@H]1CSC(=O)N1CC(C)(C)SCc1ccc(OC)cc1` registered a melting point of 51 to 54 °C.

`Cc1cccc(N2C(=O)NCc3cccnc32)c1` showed a melting point of 212 to 214 °C.

In the case of `CNC(=O)CC(SC(C)=O)C(CC(C)C)C(=O)NC(Cc1ccc(OC)cc1)C(=O)NC` (configuration not stated), the melting point is 195 to 199 °C.

In turn, `O=S(Cc1ccccn1)c1nc2cc3c(cc2[nH]1)CCC3` (configuration not stated) had a melting point of 173 to 174 °C.

`CC(=O)NC[C@H]1CN(c2ccc(N3C[C@H]4CN(C(C)=O)C[C@H]4C3)c(F)c2)C(=O)O1`: the melting point fell in the range of 168 to 170 °C.

`CCOC(=S)c1cc(Cl)c(C)c(-c2cc(C)no2)c1C` showed a melting point of 79 to 82 °C.

Consider `O=[N+]([O-])c1cc2c(c([N+](=O)[O-])c1)CCCC2`, for which the melting point was found to be 93 °C.

As to `COc1ccc(S(=O)(=O)N2C(=O)C(c3ccccc3OC)(N3Cc4ccccc4C3C(=O)N(C)C)c3cc(Cl)ccc32)c(OC)c1` (configuration not stated), the melting point is 168 °C.

On to `N#CN=C(Nc1ccccc1)Nc1ccc(C#N)cc1O`, for which the melting point lay within 270 to 271 °C.

As for `COC(=O)CC1CC(c2ccc(Cl)nc2)=NO1` (configuration not stated), the melting point lay within 94 to 96 °C.

Regarding `CC(=O)NC(=O)C(=O)C(C)(C)C`, the melting point was in the range of 82 to 84 °C.

On to `Cc1nc2c(s1)-c1nc(Nc3ccc(O)cc3)ncc1CC2`, for which the melting point fell in the range of 268 to 269 °C.

Molecule `O=[N+]([O-])c1cccc(C(O)CO)c1` (racemic) showed a melting point of 45 °C.

Regarding `CCOC(=O)Cn1c(C(=O)NCc2nnc(C)n2-c2sc(C)cc2C(=O)c2ccccc2Cl)cc2ccccc21`, the melting point is 153 to 154 °C.

`Cc1cc(C)c(NC(=O)Nc2c(-c3ccccc3Cl)c3ccncc3n(C)c2=O)c(C)c1` returned a melting point of 222 to 224 °C.

`N#Cc1ccc(N2CCC(CCO)CC2)c2ccccc12` had a melting point of 128 to 129 °C.

`Cc1nc(N)c(Br)c(NNCc2cncc(Br)c2)n1` displayed a melting point of 221 to 222 °C.

The values are drawn from a melting point compilation (Tetko et al.; mined from patent text by program, amines drawn as free bases though some values may be those of a salt).
